The values that follow come from ChEMBL document CHEMBL3991601, “The target landscape of clinical kinase drugs” (Science, 2017).

Active and inactive are the calls of the source.

One test has as its target Myosin-14 (Homo sapiens, UniProt Q7Z406).
In test [1] the target is T1, Interleukin-1 receptor-associated kinase 4 (Homo sapiens, UniProt Q9NWZ3).
T1 sequence (Q9NWZ3 whole entry): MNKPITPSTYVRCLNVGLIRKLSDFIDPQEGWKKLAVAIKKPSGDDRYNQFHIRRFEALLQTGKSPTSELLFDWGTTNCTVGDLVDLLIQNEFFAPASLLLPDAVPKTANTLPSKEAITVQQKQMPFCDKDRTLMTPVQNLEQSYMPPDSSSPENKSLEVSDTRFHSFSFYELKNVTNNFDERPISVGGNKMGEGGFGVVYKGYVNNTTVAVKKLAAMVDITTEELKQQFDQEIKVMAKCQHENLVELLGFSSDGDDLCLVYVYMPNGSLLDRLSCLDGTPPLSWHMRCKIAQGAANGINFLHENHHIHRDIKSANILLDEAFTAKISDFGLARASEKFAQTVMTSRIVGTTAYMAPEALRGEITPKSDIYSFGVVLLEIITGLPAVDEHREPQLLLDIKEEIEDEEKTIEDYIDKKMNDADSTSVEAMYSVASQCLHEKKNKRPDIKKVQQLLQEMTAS

Test [2] concerns the target Serine/threonine-protein kinase N2 (Homo sapiens, UniProt Q16513).
In a further test the target is T2, Activin receptor type-1B (Homo sapiens, UniProt P36896).
T2 sequence (P36896 whole entry): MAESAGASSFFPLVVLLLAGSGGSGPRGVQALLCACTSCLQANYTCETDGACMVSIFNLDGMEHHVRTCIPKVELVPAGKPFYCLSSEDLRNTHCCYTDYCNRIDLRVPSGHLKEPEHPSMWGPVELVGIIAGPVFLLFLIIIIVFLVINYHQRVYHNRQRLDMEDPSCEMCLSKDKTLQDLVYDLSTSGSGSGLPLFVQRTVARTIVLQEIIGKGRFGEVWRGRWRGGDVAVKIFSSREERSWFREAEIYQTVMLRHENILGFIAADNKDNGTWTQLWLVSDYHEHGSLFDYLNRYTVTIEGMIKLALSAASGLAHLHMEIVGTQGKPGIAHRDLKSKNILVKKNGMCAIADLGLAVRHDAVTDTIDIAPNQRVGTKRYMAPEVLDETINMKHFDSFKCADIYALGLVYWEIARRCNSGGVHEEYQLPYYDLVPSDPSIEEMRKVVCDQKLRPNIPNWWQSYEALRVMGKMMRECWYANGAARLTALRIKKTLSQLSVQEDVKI

Test [3] has as its target T3, Peroxisomal acyl-coenzyme A oxidase 1 (Homo sapiens, UniProt Q15067).
T3 sequence (Q15067 whole entry): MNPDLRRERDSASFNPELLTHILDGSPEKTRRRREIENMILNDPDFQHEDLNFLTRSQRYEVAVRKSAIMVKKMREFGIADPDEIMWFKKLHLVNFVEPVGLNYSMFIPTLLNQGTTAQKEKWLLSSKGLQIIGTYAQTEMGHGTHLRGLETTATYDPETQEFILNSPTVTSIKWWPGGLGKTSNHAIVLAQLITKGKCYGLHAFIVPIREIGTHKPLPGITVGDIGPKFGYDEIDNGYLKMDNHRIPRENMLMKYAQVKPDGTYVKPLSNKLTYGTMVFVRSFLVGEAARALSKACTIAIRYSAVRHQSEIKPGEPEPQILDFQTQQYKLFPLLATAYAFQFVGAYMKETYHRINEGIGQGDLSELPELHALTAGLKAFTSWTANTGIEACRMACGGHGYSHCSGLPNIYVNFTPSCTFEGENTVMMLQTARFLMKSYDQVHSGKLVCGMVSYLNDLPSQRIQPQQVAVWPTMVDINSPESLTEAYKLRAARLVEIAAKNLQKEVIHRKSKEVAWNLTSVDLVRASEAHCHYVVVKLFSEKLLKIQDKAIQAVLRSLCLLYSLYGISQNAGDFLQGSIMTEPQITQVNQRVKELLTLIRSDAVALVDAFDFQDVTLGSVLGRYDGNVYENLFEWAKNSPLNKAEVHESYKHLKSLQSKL

Test [4] has as its target Serine/threonine-protein kinase/endoribonuclease IRE2 (Homo sapiens, UniProt Q76MJ5).
Test [5] concerns the target Mitogen-activated protein kinase 10 (Homo sapiens, UniProt P53779).
Test [6] has as its target T4, Inhibitor of nuclear factor kappa-B kinase subunit epsilon (Homo sapiens, UniProt Q14164).
T4 sequence (Q14164 whole entry): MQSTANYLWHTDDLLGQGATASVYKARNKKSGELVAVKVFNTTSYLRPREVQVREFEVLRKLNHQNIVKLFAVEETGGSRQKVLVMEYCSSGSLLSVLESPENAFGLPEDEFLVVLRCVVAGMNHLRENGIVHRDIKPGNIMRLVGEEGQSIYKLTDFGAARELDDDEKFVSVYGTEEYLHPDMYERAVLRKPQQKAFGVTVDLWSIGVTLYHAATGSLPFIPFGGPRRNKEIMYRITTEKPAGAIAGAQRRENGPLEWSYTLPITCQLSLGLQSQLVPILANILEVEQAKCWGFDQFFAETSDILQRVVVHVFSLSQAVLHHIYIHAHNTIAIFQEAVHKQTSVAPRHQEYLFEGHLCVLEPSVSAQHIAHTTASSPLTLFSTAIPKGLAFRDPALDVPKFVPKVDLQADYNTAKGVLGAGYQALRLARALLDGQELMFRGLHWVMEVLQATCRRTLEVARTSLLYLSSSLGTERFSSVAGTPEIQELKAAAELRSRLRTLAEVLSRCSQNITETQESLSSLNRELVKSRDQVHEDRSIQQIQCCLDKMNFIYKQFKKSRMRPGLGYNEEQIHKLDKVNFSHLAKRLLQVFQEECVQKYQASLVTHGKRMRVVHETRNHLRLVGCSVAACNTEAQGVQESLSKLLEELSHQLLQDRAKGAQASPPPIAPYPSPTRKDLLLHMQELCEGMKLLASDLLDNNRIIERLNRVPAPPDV

The target of test [7] is Mitogen-activated protein kinase 9 (Homo sapiens, UniProt P45984).
The target in test [8] is Cyclin-dependent kinase 5 (Homo sapiens, UniProt Q00535).
Note: in the data inactive means no Kd found up to 30 µM.

Sequence of Serine/threonine-protein kinase N2 (Q16513 whole entry): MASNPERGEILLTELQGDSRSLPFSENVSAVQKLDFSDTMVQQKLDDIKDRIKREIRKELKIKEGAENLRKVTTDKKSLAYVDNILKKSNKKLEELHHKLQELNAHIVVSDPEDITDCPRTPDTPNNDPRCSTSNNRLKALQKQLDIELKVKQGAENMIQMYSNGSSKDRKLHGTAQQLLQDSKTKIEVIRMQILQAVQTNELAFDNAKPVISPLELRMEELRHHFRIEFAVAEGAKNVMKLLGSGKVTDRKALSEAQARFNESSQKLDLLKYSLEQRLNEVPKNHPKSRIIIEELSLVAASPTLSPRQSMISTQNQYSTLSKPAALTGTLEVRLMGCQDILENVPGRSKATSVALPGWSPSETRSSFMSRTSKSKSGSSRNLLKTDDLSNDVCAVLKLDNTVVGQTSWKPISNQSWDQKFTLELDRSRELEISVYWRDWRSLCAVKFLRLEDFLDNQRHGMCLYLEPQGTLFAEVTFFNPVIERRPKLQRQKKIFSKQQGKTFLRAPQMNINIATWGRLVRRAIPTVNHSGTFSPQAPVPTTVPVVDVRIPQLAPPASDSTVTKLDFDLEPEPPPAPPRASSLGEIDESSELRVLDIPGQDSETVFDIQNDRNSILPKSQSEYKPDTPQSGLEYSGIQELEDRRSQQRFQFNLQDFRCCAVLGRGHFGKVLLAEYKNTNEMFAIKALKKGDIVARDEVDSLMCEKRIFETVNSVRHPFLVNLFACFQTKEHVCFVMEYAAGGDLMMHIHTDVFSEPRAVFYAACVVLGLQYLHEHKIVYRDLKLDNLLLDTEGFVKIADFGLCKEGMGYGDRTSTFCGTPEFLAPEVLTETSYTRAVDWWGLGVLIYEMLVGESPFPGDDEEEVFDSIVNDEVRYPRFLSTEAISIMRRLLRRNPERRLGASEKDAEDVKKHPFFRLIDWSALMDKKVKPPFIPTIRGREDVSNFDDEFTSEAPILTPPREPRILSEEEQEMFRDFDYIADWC
Sequence of Cyclin-dependent kinase 5 (Q00535 whole entry): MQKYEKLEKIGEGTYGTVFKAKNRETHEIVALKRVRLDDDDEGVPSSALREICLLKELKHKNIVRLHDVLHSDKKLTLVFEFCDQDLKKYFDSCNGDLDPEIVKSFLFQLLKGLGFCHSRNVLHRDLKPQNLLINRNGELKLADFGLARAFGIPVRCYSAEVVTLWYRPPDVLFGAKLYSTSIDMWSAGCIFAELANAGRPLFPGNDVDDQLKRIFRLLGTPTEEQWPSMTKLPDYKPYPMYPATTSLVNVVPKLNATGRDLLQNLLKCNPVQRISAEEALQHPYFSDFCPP
Sequence of Serine/threonine-protein kinase/endoribonuclease IRE2 (Q76MJ5 whole entry): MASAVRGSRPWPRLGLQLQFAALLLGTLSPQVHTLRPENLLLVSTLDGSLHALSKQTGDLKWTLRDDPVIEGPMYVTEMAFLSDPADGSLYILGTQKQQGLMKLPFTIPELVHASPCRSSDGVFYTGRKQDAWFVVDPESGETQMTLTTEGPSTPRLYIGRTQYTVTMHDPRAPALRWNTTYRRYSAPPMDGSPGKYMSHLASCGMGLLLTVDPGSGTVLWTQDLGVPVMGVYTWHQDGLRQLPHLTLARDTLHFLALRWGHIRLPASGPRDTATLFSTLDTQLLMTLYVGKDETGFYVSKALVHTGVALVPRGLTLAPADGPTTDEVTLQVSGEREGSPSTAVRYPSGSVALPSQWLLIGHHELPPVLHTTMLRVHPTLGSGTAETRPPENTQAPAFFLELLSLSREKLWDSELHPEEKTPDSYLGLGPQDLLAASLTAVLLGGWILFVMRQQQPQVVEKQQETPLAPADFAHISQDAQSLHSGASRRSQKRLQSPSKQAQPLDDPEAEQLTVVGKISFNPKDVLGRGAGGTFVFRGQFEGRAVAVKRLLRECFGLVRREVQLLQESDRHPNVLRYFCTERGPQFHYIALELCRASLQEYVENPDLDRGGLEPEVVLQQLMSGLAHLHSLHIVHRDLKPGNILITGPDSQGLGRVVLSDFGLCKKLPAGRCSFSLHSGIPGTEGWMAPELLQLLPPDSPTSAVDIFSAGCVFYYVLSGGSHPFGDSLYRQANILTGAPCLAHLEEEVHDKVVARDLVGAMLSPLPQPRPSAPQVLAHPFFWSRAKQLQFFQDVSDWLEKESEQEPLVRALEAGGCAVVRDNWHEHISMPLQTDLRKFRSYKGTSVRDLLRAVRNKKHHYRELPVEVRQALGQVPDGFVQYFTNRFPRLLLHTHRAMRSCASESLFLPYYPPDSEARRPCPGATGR
Sequence of Mitogen-activated protein kinase 9 (P45984 whole entry): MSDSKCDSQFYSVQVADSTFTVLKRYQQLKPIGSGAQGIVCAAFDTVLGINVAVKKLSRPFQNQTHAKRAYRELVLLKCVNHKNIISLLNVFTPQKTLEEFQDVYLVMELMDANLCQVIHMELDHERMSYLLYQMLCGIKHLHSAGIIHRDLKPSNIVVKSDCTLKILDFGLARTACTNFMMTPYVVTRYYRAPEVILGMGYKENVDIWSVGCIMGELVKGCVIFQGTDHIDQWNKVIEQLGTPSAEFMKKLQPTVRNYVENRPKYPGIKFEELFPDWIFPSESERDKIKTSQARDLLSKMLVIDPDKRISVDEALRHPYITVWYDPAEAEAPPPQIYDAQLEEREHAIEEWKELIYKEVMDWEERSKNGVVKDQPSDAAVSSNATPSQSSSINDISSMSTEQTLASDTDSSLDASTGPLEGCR
Sequence of Myosin-14 (Q7Z406 whole entry): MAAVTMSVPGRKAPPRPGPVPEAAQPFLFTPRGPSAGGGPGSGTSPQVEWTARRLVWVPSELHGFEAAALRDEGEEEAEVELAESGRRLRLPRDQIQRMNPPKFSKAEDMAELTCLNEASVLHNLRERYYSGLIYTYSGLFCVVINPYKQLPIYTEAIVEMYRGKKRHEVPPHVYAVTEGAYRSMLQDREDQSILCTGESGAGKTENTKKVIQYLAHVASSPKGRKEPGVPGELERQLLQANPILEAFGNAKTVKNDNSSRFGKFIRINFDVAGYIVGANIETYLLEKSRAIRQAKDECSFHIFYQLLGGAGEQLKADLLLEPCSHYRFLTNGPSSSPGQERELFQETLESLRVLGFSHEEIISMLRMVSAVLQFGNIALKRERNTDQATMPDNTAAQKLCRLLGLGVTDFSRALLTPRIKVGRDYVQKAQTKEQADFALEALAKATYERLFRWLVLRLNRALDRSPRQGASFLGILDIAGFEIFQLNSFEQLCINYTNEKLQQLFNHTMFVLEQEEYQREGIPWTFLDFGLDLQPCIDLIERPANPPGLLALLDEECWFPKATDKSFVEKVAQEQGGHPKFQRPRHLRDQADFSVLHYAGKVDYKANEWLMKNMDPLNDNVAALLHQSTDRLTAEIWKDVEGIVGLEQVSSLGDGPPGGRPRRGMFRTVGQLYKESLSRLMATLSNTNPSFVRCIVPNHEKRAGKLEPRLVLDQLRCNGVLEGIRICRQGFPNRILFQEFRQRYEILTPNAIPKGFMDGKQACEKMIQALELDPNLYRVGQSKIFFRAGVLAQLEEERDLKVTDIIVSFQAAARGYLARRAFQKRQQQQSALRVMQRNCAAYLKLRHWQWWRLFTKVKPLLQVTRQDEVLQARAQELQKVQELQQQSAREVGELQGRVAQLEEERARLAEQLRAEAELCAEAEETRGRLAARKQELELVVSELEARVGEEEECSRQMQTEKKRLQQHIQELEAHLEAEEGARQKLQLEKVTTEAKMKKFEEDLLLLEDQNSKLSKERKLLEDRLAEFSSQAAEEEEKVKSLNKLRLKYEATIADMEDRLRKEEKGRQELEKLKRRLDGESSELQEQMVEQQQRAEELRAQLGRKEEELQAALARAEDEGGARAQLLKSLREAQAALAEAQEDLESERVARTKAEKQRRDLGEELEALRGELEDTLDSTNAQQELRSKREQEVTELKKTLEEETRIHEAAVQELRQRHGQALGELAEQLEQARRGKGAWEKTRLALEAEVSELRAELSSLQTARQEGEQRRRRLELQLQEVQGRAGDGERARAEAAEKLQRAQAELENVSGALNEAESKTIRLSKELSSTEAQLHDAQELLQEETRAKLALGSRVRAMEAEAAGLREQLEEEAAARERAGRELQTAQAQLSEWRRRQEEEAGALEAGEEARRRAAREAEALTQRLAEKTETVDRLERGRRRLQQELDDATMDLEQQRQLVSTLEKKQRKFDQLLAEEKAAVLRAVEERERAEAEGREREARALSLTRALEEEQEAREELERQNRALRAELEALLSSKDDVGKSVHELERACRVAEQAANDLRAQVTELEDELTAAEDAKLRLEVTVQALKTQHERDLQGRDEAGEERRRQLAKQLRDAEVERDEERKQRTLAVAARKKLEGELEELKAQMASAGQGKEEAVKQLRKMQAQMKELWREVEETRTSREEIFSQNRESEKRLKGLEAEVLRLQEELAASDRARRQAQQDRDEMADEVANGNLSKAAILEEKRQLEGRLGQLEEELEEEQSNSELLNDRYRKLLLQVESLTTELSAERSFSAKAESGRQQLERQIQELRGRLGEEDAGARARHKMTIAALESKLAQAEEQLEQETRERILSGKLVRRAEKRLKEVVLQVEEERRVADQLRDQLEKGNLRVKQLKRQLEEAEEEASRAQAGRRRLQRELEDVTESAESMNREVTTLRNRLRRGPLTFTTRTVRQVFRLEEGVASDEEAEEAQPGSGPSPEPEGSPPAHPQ
Sequence of Mitogen-activated protein kinase 10 (P53779 whole entry): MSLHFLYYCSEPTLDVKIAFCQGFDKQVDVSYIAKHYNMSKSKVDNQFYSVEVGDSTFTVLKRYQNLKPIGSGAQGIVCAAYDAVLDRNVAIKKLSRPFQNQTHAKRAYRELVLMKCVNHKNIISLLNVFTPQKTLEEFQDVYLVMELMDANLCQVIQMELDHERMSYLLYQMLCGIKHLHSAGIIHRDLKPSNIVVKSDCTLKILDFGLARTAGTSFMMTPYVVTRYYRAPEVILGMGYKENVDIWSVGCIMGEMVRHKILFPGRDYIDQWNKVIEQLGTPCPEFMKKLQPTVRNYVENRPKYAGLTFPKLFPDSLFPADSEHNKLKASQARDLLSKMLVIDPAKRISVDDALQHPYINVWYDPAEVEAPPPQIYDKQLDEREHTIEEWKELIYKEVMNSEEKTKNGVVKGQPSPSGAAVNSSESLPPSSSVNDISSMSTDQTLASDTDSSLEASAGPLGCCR

With `CCN(CCCOc1ccc2c(Nc3cc(CC(=O)Nc4cccc(F)c4)n[nH]3)ncnc2c1)CCOP(=O)(O)O` [BARASERTIB], the Kd (at Myosin-14; in test [1]; in test [2]; on Activin receptor type-1B; in test [3]; in [4]) was > 30 µM (inactive) in each case.

In the case of `C=CCn1c(=O)c2cnc(Nc3ccc(N4CCN(C)CC4)cc3)nc2n1-c1cccc(C(C)(C)O)n1` [ADAVOSERTIB], the Kd (on Myosin-14; in test [1]; on Activin receptor type-1B; in test [5]; in test [3]; in test [4]) was > 30 µM (inactive) throughout.

In the case of `COc1cc2c(N3CCN(C(=O)Nc4ccc(OC(C)C)cc4)CC3)ncnc2cc1OCCCN1CCCCC1` [TANDUTINIB], the Kd (at Myosin-14; in test [3]; in [4]) was > 30 µM (inactive) in each case.

As for `COc1cc2c(Oc3ccc4[nH]c(C)cc4c3F)ncnc2cc1OCCCN1CCCC1` [CEDIRANIB], the Kd (at Myosin-14; in [3]; in [4]) was > 30 µM (inactive) each time.

`CCN1CCN(Cc2ccc(Nc3ncc(F)c(-c4cc(F)c5nc(C)n(C(C)C)c5c4)n3)nc2)CC1` [ABEMACICLIB]: the Kd (at Myosin-14; in test [6]; in [1]; in test [7]; in test [2]; at Activin receptor type-1B) was > 30 µM (inactive) throughout. Besides, the Kd (commonly the concentration at which binding is half-saturated) in test [4] is > 30 µM (inactive).

As to `Cn1cnc2c(F)c(Nc3ccc(Br)cc3Cl)c(C(=O)NOCCO)cc21` [SELUMETINIB], the Kd (on Myosin-14; in test [3]; in test [4]) was > 30 µM (inactive) throughout.

As for `CC1(COc2ccc3c(c2)ncn3-c2ccc3cccc(N4CCC(N)CC4)c3n2)COC1` [CRENOLANIB], the Kd on Myosin-14 is > 30 µM (inactive); in test [6], > 30 µM (inactive); in test [7] it was > 30 µM (inactive); in [2] it was 1.21 µM (active); at Activin receptor type-1B, > 30 µM (inactive); in [5] it was > 30 µM (inactive). In addition, the Kd in test [3] and in test [4] was > 30 µM (inactive) throughout.

With `CN(C)C/C=C/C(=O)Nc1cc2c(Nc3ccc(F)c(Cl)c3)ncnc2cc1O[C@H]1CCOC1` [AFATINIB], the Kd (on Myosin-14; in test [3]; in [4]) was > 30 µM (inactive) in each case.

As to `CN(c1ncccc1CNc1nc(Nc2ccc3c(c2)CC(=O)N3)ncc1C(F)(F)F)S(C)(=O)=O` [PF-00562271], the Kd (on Myosin-14; on Activin receptor type-1B; in test [3]; in test [4]) was > 30 µM (inactive) throughout.

Turning to `NC(=O)c1ccc(N(C(N)=O)c2c(F)cccc2F)nc1-c1ccc(F)cc1F` [VX-702], the Kd (at Myosin-14; in test [6]; in [1]; in test [2]; at Activin receptor type-1B; in [8]) was > 30 µM (inactive) each time. Further, the Kd in [3] and in test [4] was > 30 µM (inactive) in each case.

`CC1(C)CNc2cc(NC(=O)c3cccnc3NCc3ccncc3)ccc21` [MOTESANIB]: the Kd in [3] and in test [4] was > 30 µM (inactive) each time.

In the case of `S=C(NCc1ccc2c(c1)OCO2)N1CCN(c2ncnc3c2oc2ccccc23)CC1` [AMUVATINIB], the Kd (at Myosin-14; in test [6]; in test [1]; in test [7]; in [2]; on Activin receptor type-1B) was > 30 µM (inactive) throughout. Further, the Kd in [8], in [3] and in test [4] was > 30 µM (inactive) each time.

For `O=S(=O)(c1cccc2cnccc12)N1CCCNCC1` [FASUDIL], the Kd (on Myosin-14; at Activin receptor type-1B; in test [5]; in test [3]; in [4]) was > 30 µM (inactive) throughout.

On to `N#CCNC(=O)c1ccc(-c2ccnc(Nc3ccc(N4CCOCC4)cc3)n2)cc1` [MOMELOTINIB], for which the Kd at Myosin-14 is > 30 µM (inactive); in test [6] it was 0.2 µM (active); in test [1], > 30 µM (inactive); in test [2], > 30 µM (inactive); at Activin receptor type-1B it was > 30 µM (inactive); in test [8] it was > 30 µM (inactive). Besides, the Kd in test [4] is > 30 µM (inactive).

On to `O[C@H]1CC[C@H](Nc2ncc3nc(Nc4c(F)cc(F)cc4F)n([C@H]4CCOC4)c3n2)CC1` [TANZISERTIB], for which the Kd (in [6]; in [1]; in [2]; on Activin receptor type-1B; in test [8]; in test [3]) was > 30 µM (inactive) throughout. Also, the Kd in test [4] is > 30 µM (inactive).

Take `C[C@]1(O)C[C@@H](c2nc(-c3ccc4ccc(-c5ccccc5)nc4c3)c3c(N)nccn32)C1` [LINSITINIB]: the Kd (at Myosin-14; in test [6]; at Activin receptor type-1B; in test [5]; in [3]; in [4]) was > 30 µM (inactive) in each case.

As for `Cn1c(=O)n(-c2ccc(C(C)(C)C#N)cc2)c2c3cc(-c4cnc5ccccc5c4)ccc3ncc21` [DACTOLISIB], the Kd (at Myosin-14; in test [1]; at Activin receptor type-1B; in [3]; in test [4]) was > 30 µM (inactive) in each case.
